Measured values as given in PubChem BioAssay AID248 (DTP/NCI, 2004).
Several values for one entry are separate records, joined by “and”; a condition that tells them apart may be missing. Equal values may be shown once. Inconclusive results and toxic doses are left out. No stated cut-off is given here; in the data, active means T/C of 150% or more; inactive means T/C below 125%.

Tested on: L1210 leukemia ip in BDF1 mice, survival T/C
Experiment: NCI In Vivo Anticancer Drug Screen. Data for tumor model L1210 Leukemia (intraperitoneal) in B6D2F1 (BDF1) mice
Conditions: endpoint: mean survival time, higher = longer survival
How it was run: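 Tumor cells were implanted, animals were treated, and survival was followed. The result divides the treated measurement by the vehicle-control measurement.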

[1] = dose: 100.0 mg/kg/injection, schedule: Q01DX001 (ip), vehicle: Klucel (hydroxypropylcellulose) (HPC)
[2] = dose: 100.0 mg/kg/injection, schedule: Q01DX009 (ip), vehicle: Klucel (hydroxypropylcellulose) (HPC)
[3] = dose: 200.0 mg/kg/injection, schedule: Q01DX009 (ip), vehicle: Klucel (hydroxypropylcellulose) (HPC)
[4] = dose: 400.0 mg/kg/injection, schedule: Q01DX009 (ip), vehicle: Klucel (hydroxypropylcellulose) (HPC)
[5] = dose: 100.0 mg/kg/injection, schedule: Q04DX003 (ip), vehicle: saline with Tween-80
[6] = dose: 200.0 mg/kg/injection, schedule: Q04DX003 (ip), vehicle: saline with Tween-80
[7] = dose: 100.0 mg/kg/injection, schedule: Q01DX001 (ip), vehicle: carboxymethylcellulose (CMC)
[8] = dose: 200.0 mg/kg/injection, schedule: Q01DX001 (ip), vehicle: carboxymethylcellulose (CMC)
[9] = dose: 400.0 mg/kg/injection, schedule: Q01DX001 (ip), vehicle: carboxymethylcellulose (CMC)

Measured: T/C

COc1ccc(CN2CCCN(Cc3ccc(OC)cc3OC)C2c2ccccn2)c(OC)c1
inactive: dose: 50.0 mg/kg/injection, schedule: Q01DX001 (ip), vehicle: saline 101 % of control | dose: 100.0 mg/kg/injection, schedule: Q01DX001 (ip), vehicle: saline 95 % of control | dose: 200.0 mg/kg/injection, schedule: Q01DX001 (ip), vehicle: saline 91 % of control | dose: 400.0 mg/kg/injection, schedule: Q01DX001 (ip), vehicle: saline 89 % of control

O=c1c(Cl)c(C(Cl)(Cl)Cl)n(O)c2ccccc12
inactive: dose: 6.25 mg/kg/injection, schedule: Q01DX001 (ip), vehicle: Klucel (hydroxypropylcellulose) (HPC) 104 % of control | dose: 12.5 mg/kg/injection, schedule: Q01DX001 (ip), vehicle: Klucel (hydroxypropylcellulose) (HPC) 104 % of control | dose: 25.0 mg/kg/injection, schedule: Q01DX001 (ip), vehicle: Klucel (hydroxypropylcellulose) (HPC) 98 % of control | dose: 50.0 mg/kg/injection, schedule: Q01DX001 (ip), vehicle: Klucel (hydroxypropylcellulose) (HPC) 103 % of control | [1] 95 % of control

Cc1ncc(C(=O)O)n1C(C)c1ccccc1 (centres undefined)
inactive: [1] 100 % of control | [2] 94 % of control and 104 % of control | dose: 100.0 mg/kg/injection, schedule: Q04DX002 (ip), vehicle: Klucel (hydroxypropylcellulose) (HPC) 94 % of control and 100 % of control and 102 % of control | dose: 100.0 mg/kg/injection, schedule: Q04DX003 (ip), vehicle: Klucel (hydroxypropylcellulose) (HPC) 93 % of control | dose: 200.0 mg/kg/injection, schedule: Q01DX001 (ip), vehicle: Klucel (hydroxypropylcellulose) (HPC) 109 % of control | [3] 100 % of control | dose: 200.0 mg/kg/injection, schedule: Q04DX002 (ip), vehicle: Klucel (hydroxypropylcellulose) (HPC) 94 % of control and 99 % of control and 100 % of control | dose: 200.0 mg/kg/injection, schedule: Q04DX003 (ip), vehicle: Klucel (hydroxypropylcellulose) (HPC) 95 % of control | dose: 400.0 mg/kg/injection, schedule: Q01DX001 (ip), vehicle: Klucel (hydroxypropylcellulose) (HPC) 96 % of control | [4] 97 % of control and 100 % of control | dose: 400.0 mg/kg/injection, schedule: Q04DX002 (ip), vehicle: Klucel (hydroxypropylcellulose) (HPC) 98 % of control and 103 % of control and 104 % of control | dose: 400.0 mg/kg/injection, schedule: Q04DX003 (ip), vehicle: Klucel (hydroxypropylcellulose) (HPC) 96 % of control

CC(CCC1CCCCC1)c1ccccc1 (centres undefined) (tested in a mixture with another compound)
inactive: [5] 93 % of control | [6] 96 % of control | dose: 400.0 mg/kg/injection, schedule: Q04DX003 (ip), vehicle: saline with Tween-80 93 % of control

CCCCC(=O)N/N=C/c1cccc(OC)c1OC
inactive: [7] 92 % of control | [8] 92 % of control | [9] 101 % of control

Cc1ccc(S(=O)(=O)OC[C@H]2CC=CC[C@H]2COS(=O)(=O)c2ccc(C)cc2)cc1
inactive: dose: 75.0 mg/kg/injection, schedule: Q01DX009 (ip), vehicle: saline with Tween-80 91 % of control | dose: 100.0 mg/kg/injection, schedule: Q01DX009 (ip), vehicle: DMSO 95 % of control | dose: 100.0 mg/kg/injection, schedule: Q04DX003 (ip), vehicle: DMSO 86 % of control | [5] 88 % of control | dose: 150.0 mg/kg/injection, schedule: Q01DX009 (ip), vehicle: saline with Tween-80 107 % of control | dose: 200.0 mg/kg/injection, schedule: Q01DX009 (ip), vehicle: DMSO 101 % of control | dose: 200.0 mg/kg/injection, schedule: Q04DX003 (ip), vehicle: DMSO 86 % of control | [6] 86 % of control | dose: 300.0 mg/kg/injection, schedule: Q01DX009 (ip), vehicle: saline with Tween-80 101 % of control | dose: 400.0 mg/kg/injection, schedule: Q04DX003 (ip), vehicle: DMSO 88 % of control

CCC1(c2ccccc2)C(=O)N(C)C(=O)N(CBr)C1=O (centres undefined)
inactive: dose: 100.0 mg/kg/injection, schedule: Q01DX009 (ip), vehicle: saline with Tween-80 109 % of control | dose: 100.0 mg/kg/injection, schedule: Q04DX002 (ip), vehicle: saline with Tween-80 92 % of control | dose: 200.0 mg/kg/injection, schedule: Q01DX009 (ip), vehicle: saline with Tween-80 106 % of control | dose: 200.0 mg/kg/injection, schedule: Q04DX002 (ip), vehicle: saline with Tween-80 98 % of control | dose: 400.0 mg/kg/injection, schedule: Q04DX002 (ip), vehicle: saline with Tween-80 103 % of control

CSc1cc2c(cc1NC(C)=O)C(=O)c1cc(F)ccc1-2
inactive: [7] 98 % of control | [8] 101 % of control | [9] 95 % of control

C/C(=N/Nc1ccc([N+](=O)[O-])cc1)c1ccncc1
inactive: dose: 50.0 mg/kg/injection, schedule: Q01DX009 (ip), vehicle: Klucel (hydroxypropylcellulose) (HPC) 101 % of control | [2] 111 % of control | [3] 89 % of control | [4] 105 % of control
